The nature of this data set: PTX release by dialysis bag diffusion technique (HPLC). The format is physicochemical. Conditions: 1:9 DMSO:PBS solution. How it is done: where mo (mg) is the initial amount of PTX used; mr (mg) is the residual amount of PTX in the loading solution; mNPs (g) is the […] used in the loading experiment. A dialysis bag diffusion technique was used for examining drug release behaviors. Briefly, PTX@NPs were dispersed in 1 mL of release solution (DMSO: PBS 1:9 v/v) and transferred to a dialysis bag (molecular weight cut off=14 kDa) and shaken in 5 mL of release solution at 37° C. At the predetermined time intervals, 200 μL of the solution was withdrawn and the same amount of fresh solution was added into the system. The released PTX content from PTX@NPs was determined by HPLC analysis. HPLC analyses were recorded on Agilent Technologies 1200 Series with ZORBAX SB-C18 column (Agilent, 5 μm, 4.6×250 mm). The mobile phase was water:acetonitrile (50:50 v/v). The separation was carried out at 30° C. The detection wavelength was 227 nm and a flow rate of 1.0 mL·min^−1 was employed. A sample volume of 20 μL was injected. Free PTX was used as a control to compare with PTX@NPs.

With `CC(=O)O[C@H]1C(=O)[C@@]2(C)[C@H]([C@H](OC(=O)c3ccccc3)[C@]3(O)C[C@H](OC(=O)[C@H](O)[C@@H](NC(=O)c4ccccc4)c4ccccc4)C(C)=C1C3(C)C)[C@]1(OC(C)=O)CO[C@@H]1C[C@@H]2O` [free PTX, paclitaxel], the “PTX released at the early stage of the release” value (37° C., dialysis bag) is listed as ~15%. In addition, the “release behavior” value (after the early stage) is on record as “short-term release”.

The record behind these values is US20240299314A1 (priority 2023, published 2024).
